The values below are quoted from earlier work in US20210322447A1, “T[…]-DOSING DELIVERY OF PSYCHEDELICS DERIVATIVES” (PIKE THERAPEUTICS, INC., priority 2020, published 2021).

The test system of series [1] is central nervous system. As to conditions: cited from Nelson and Foltz, Anal. Chem. 64, 1578-1585, 1992.
The subject of series [2] is serotonin receptors in the brain. As to conditions: once ingested; typical duration.

On to `CCN(CC)C(=O)[C@@H]1C=C2c3cccc4[nH]cc(c34)C[C@H]2N(C)C1` [LSD, 9,10-didehydro-N,N-diethyl-6-methylergoline-80-carboxamide], for which the “concentration sufficient to induce hallucination” value in series [1] is 20 to 80 µg.
Take `CN(C)CCc1c[nH]c2cccc(OP(=O)(O)O)c12` [psilocybin, [3-(2-dimethylaminoethyl)-1H-indol-4-yl] dihydrogen phosphate]: the “duration of mind-altering effects” value in series [2] is reported as “two to six”.
